Data set [1] can be described thus: Induction of mast cell degranulation in human LAD2 cells assessed as beta-hexosaminidase release by measuring 4-methylumbelliferyl N-acetyl-beta-D-glucosaminide hydrolysis incubated for 30 mins by plate reader analysis. Format: toxicity, cell-based. As to conditions: probe 4-methylumbelliferyl N-acetyl-beta-D-glucosaminide.
Data set [2] in a line: Induction of mast cell degranulation in human LAD2 cells assessed as beta-hexosaminidase release by measuring maximal efficacy of 4-methylumbelliferyl N-acetyl-beta-D-glucosaminide hydrolysis at 10 uM incubated for 30 mins by plate reader analysis relative to control. Type of data set: toxicity, cell-based. Conditions: probe 4-methylumbelliferyl N-acetyl-beta-D-glucosaminide.

Data set [3] concerns the target T1, Relaxin receptor 1 (Homo sapiens, UniProt Q9HBX9).
T1 sequence (Q9HBX9 whole entry): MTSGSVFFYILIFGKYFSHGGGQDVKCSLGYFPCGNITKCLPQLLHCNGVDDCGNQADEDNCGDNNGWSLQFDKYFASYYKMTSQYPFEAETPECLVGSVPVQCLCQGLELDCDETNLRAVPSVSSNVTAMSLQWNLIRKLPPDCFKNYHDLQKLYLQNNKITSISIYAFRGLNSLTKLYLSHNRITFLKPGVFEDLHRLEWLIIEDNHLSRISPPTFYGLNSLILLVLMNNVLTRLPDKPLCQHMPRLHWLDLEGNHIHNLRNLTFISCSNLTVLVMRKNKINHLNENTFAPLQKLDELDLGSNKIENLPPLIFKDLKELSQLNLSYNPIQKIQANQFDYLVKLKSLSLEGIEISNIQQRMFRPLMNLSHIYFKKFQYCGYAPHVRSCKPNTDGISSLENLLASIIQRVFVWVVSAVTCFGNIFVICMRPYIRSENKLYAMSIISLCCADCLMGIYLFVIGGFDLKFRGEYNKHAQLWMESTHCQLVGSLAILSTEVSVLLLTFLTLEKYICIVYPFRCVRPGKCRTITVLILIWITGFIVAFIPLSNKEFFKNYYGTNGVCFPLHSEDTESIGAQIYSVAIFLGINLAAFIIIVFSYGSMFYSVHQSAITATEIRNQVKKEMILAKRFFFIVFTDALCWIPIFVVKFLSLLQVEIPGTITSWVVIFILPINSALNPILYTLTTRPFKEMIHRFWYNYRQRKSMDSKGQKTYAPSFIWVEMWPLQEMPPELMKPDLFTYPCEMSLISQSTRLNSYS
Put plainly: Agonist activity at human RXFP1 expressed in human OVCAR-5 cells assessed as intracellular cAMP accumulation incubated for 30 mins by HTRF assay. Type of data set: functional, cell-based.

Data set [4] concerns the target T2, Relaxin receptor 1 (Homo sapiens) (UniProt Q9HBX9).
T2 sequence (whole entry): T1 sequence (Q9HBX9 whole entry)
Put plainly: Agonist activity at human RXFP1 expressed in human OVCAR-5 cells assessed as intracellular cAMP accumulation by measuring maximal efficacy incubated for 30 mins by HTRF assay relative to control. Type of data set: functional, cell-based. Conditions: filed as agonist.

Data set [5] has as its target T2, Relaxin receptor 1 (Homo sapiens). Briefly: Agonist activity at human RXFP1 expressed in 2%HSA treated human OVCAR-5 cells assessed as intracellular cAMP accumulation by measuring maximal efficacy incubated for 30 mins with 2% HSA pretreated compound by HTRF assay relative to control. Format: functional, cell-based. As to conditions: filed as agonist.
Data set [6] is described as follows: Half-life in male Sprague-Dawley rat at 1 mg/kg, iv measured after 198 hrs by LC-HRMS analysis. Type of data set: ADME, organism-based. As to conditions: in vivo.
For data set [7], the target named is T1, Relaxin receptor 1. Put plainly: Agonist activity at human RXFP1 expressed in 2%HSA treated human OVCAR-5 cells assessed as intracellular cAMP accumulation incubated for 30 mins with 2% HSA pretreated compound by HTRF assay. Type of data set: functional, cell-based.
A short description of data set [8]: Induction of immune response in human CD4+ T cells assessed as increase in auto reactive T cells at 3 uM preincubated with monocyte-derived immature dendritic cells followed by T cell addition and further stimulated on day 7 and 14 with autologous dendritic cells and measured after 5 days post last stimulation by IFNgamma-Elispot analysis. As to conditions: 120 h. Format: toxicity, cell-based.

The record followed here is ChEMBL document CHEMBL6096738, “Optimization of Single Relaxin B-Chain Peptide Leads to the Identification of R2R01, a Potent, Long-Acting RXFP1 Agonist for Cardiovascular and Renal Diseases” (J Med Chem, 2025).

Starred links: 1 amine or outer side, 2 acyl side, 3 side chain; linkers in the order of their positions; H or OH if unused. Non-standard residues stand in square brackets, D forms with d. Residues, ends and D or L forms follow the SMILES beside them. Groups on a side chain read outwards from the residue. *: point of attachment. X3 = CCCCCCCCCCCCCCCCCC(=O)N[C@@H](CCC(=O)N[C@@H](CCC(=O)N[C@@H](CCC(=O)NCCCOCCOCCOCCCNC(=O)CCC(=O)NCCCOCCOCCOCCCNC(=O)CCC(=O)NCCCOCCOCCOCCCN*)C(=O)O)C(=O)O)C(=O)O; PEG12 = NCCOCCOCCOCCOCCOCCOCCOCCOCCOCCOCCOCCOCCC(=O)O; γGlu = O=C(O)[C@H](CCC(=O)[*:2])N[*:1]; Stearoyl = CCCCCCCCCCCCCCCCCC(=O)*; Suc = O=C(CCC(=O)[*:2])[*:1]; Nle = CCCC[C@H](N)C(=O)O; Aib = CC(C)(N)C(=O)O

For the compound `CCCCCCCCCCCCCCCCCC(=O)N[C@@H](CCC(=O)N[C@@H](CCC(=O)N[C@@H](CCC(=O)NCCCOCCOCCOCCCNC(=O)CCC(=O)NCCCOCCOCCOCCCNC(=O)CCC(=O)NCCCOCCOCCOCCCNC(=O)CCC(=O)NCCCC[C@H](NC(=O)CNC(=O)[C@H](CCC(=O)O)NC(=O)C(C)(C)NC(=O)C(C)(C)NC(=O)[C@@H](NC(=O)[C@H](CCCCNC(C)=O)NC(=O)[C@H](C)NC(=O)[C@H](CCCNC(=N)N)NC(=O)[C@@H](NC(=O)[C@H](CCCCN)NC(=O)[C@H](CCC(=O)O)NC(=O)[C@H](CCCNC(=N)N)NC(=O)CNC(=O)[C@H](CCC(=O)O)NC(=O)[C@H](CC(C)C)NC(C)=O)C(C)C)[C@@H](C)CC)C(=O)N[C@@H](CO)C(=O)N[C@H](C(=O)N[C@@H](Cc1c[nH]c2ccccc12)C(=O)N[C@@H](CO)C(=O)NC(C)(C)C(=O)N[C@@H](CCCNC(=N)N)C(=O)N[C@@H](CCCCN)C(=O)N[C@@H](CCCCNC(C)=O)C(N)=O)[C@@H](C)O)C(=O)O)C(=O)O)C(=O)O` (Ac-LEGREKVRAK(Ac)I[Aib][Aib]EGK([Suc-X3])STWS[Aib]RKK(Ac)-NH2), the EC50 at 30 min in data set [1] turned out to be 6430 nM. Also, the Emax at 0.5 h, 10 µM in data set [2] was 70%. Besides, the EC50 on Relaxin receptor 1 [3] was 0.2 nM; at Relaxin receptor 1 [7], 10.8 nM. For the same compound, the Emax worked out at 96% in data set [4] and 97% in data set [5]. The half-life in data set [6] is 5.13 h.
For `CCCCCCCCCCCCCCCC(=O)N[C@@H](CCC(=O)N[C@@H](CCC(=O)N[C@@H](CCC(=O)NC(=O)CCOCCOCCOCCOCCOCCOCCOCCOCCOCCOCCOCCOCCNCCCC[C@H](NC(=O)[C@H](C)NC(=O)[C@H](CCCNC(=N)N)NC(=O)[C@@H](NC(=O)[C@H](CCCCN)NC(=O)[C@H](CCC(=O)O)NC(=O)[C@H](CCCNC(=N)N)NC(=O)CNC(=O)[C@H](CCC(=O)O)NC(=O)[C@H](CC(C)C)NC(C)=O)C(C)C)C(=O)N[C@H](C(=O)NC(C)(C)C(=O)NC(C)(C)C(=O)N[C@@H](CCC(=O)O)C(=O)NCC(=O)N[C@@H](CCCC)C(=O)N[C@@H](CO)C(=O)N[C@H](C(=O)N[C@@H](Cc1c[nH]c2ccccc12)C(=O)N[C@@H](CO)C(=O)NC(C)(C)C(=O)N[C@@H](CCCNC(=N)N)C(=O)N[C@@H](CCCCN)C(=O)N[C@@H](CCCCNC(C)=O)C(N)=O)[C@@H](C)O)[C@@H](C)CC)C(=O)O)C(=O)O)C(=O)O`, in data set [1], the EC50 at 30 min stood at 2420 nM. Besides, the Emax at 0.5 h, 10 µM in data set [2] was 59.7%. Also, the EC50 at Relaxin receptor 1 [3] stood at 6.2 nM; at Relaxin receptor 1 [7], 132 nM. In addition, the Emax was 78% in data set [4] and 73% in data set [5].
`CC[C@H](C)[C@H](NC(=O)[C@H](Cc1ccccc1)NC(=O)[C@H](CCC(=O)O)NC(=O)[C@H](CCCCN)NC(=O)[C@H](C)NC(=O)[C@H](C)NC(=O)[C@H](CCC(N)=O)NC(=O)CNC(=O)[C@H](CCC(=O)O)NC(=O)[C@H](CC(C)C)NC(=O)[C@H](Cc1ccc(O)cc1)NC(=O)[C@H](CO)NC(=O)[C@H](CO)NC(=O)[C@@H](NC(=O)[C@H](CC(=O)O)NC(=O)[C@H](CO)NC(=O)[C@@H](NC(=O)[C@H](Cc1ccccc1)NC(=O)[C@@H](NC(=O)CNC(=O)[C@H](CCC(=O)O)NC(=O)[C@H](C)NC(=O)[C@@H](N)Cc1c[nH]cn1)[C@@H](C)O)[C@@H](C)O)C(C)C)C(=O)N[C@@H](C)C(=O)N[C@@H](Cc1c[nH]c2ccccc12)C(=O)N[C@@H](CC(C)C)C(=O)N[C@H](C(=O)N[C@@H](CCCCN)C(=O)NCC(=O)N[C@@H](CCCNC(=N)N)C(N)=O)C(C)C`: the EC50 at 30 min in data set [1] is […]. Besides, in data set [2], the Emax at 0.5 h, 10 µM is 2.5%.
Consider `CCCCCCCCCCCCCCCCCC(=O)N[C@@H](CCC(=O)N[C@@H](CCC(=O)N[C@@H](CCC(=O)NCCCC[C@H](NC(=O)CCOCCOCCOCCOCCOCCOCCOCCOCCOCCOCCOCCOCCNC(=O)[C@H](CCCCNC(C)=O)NC(=O)[C@H](CCCCN)NC(=O)[C@H](CCCNC(=N)N)NC(=O)C(C)(C)NC(=O)[C@H](CO)NC(=O)[C@H](Cc1c[nH]c2ccccc12)NC(=O)[C@@H](NC(=O)[C@H](CO)NC(=O)[C@H](CCCC)NC(=O)CNC(=O)[C@H](CCC(=O)O)NC(=O)C(C)(C)NC(=O)C(C)(C)NC(=O)[C@@H](NC(=O)[C@H](CCCCNC(C)=O)NC(=O)[C@H](C)NC(=O)[C@H](CCCNC(=N)N)NC(=O)[C@@H](NC(=O)[C@H](CCCCN)NC(=O)[C@H](CCC(=O)O)NC(=O)[C@H](CCCNC(=N)N)NC(=O)CNC(=O)[C@H](CCC(=O)O)NC(=O)[C@H](CC(C)C)NC(C)=O)C(C)C)[C@@H](C)CC)[C@@H](C)O)C(N)=O)C(=O)O)C(=O)O)C(=O)O` (Ac-LEGREKVRAK(Ac)I[Aib][Aib]EG[Nle]STWS[Aib]RKK(Ac)[PEG12]K([γGlu-γGlu-γGlu-Stearoyl])-NH2), for which the EC50 came to 0.6 nM at Relaxin receptor 1 [3] and 9 nM on Relaxin receptor 1 [7]. Moreover, the results for the Emax in data set [4] and in data set [5] were 95% and 84%, respectively. Moreover, the Activity result in data set [8] is “Non-toxic”. The same compound showed a half-life in data set [6] of 4.3 h.
For the compound `CCCC[C@H](NC(=O)CNC(=O)[C@H](CCC(=O)O)NC(=O)C(C)(C)NC(=O)C(C)(C)NC(=O)[C@@H](NC(=O)[C@H](CCCCNC(C)=O)NC(=O)[C@H](C)NC(=O)[C@H](CCCNC(=N)N)NC(=O)[C@@H](NC(=O)[C@H](CCCCN)NC(=O)[C@H](CCC(=O)O)NC(=O)[C@H](CCCNC(=N)N)NC(=O)CNC(=O)[C@H](CCC(=O)O)NC(=O)[C@H](CC(C)C)NC(C)=O)C(C)C)[C@@H](C)CC)C(=O)N[C@@H](CO)C(=O)N[C@H](C(=O)N[C@@H](Cc1c[nH]c2ccccc12)C(=O)N[C@@H](CO)C(=O)NC(C)(C)C(=O)N[C@@H](CCCNC(=N)N)C(=O)N[C@@H](CCCCN)C(=O)N[C@@H](CCCCNC(C)=O)C(N)=O)[C@@H](C)O` (Ac-LEGREKVRAK(Ac)I[Aib][Aib]EG[Nle]STWS[Aib]RKK(Ac)-NH2), the Activity entry in data set [8] was “Non-toxic”.
